In patent publication US8426437B2, “Pyrroloquinoline derivatives and their use as protein kinases inhibitors” (Pierre Fabre Medicament, priority 2005, dated 2013) one finds IC50 data, which are given here for 19 compounds.

Common to all, as to format: biochemical
One test concerns the target ALK (Homo sapiens, UniProt Q9UM73). The test is described as follows: Inhibition of kinase ALK (PLCγ1-GST substrate, anti-phosphotyrosine ELISA). The following applies: ALK 180 ng/ml, 250 μM ATP, 30 minutes at 30° C. How it is done: Incubation is carried out for 30 minutes at 30° C. with agitation.
The signal is read in luminescent mode using a luminometer.

For the next test, the target named is T1, RET (Homo sapiens, UniProt P07949).
T1 construct: purchased Upstate 14-570MG
T1 sequence (P07949 29-1114): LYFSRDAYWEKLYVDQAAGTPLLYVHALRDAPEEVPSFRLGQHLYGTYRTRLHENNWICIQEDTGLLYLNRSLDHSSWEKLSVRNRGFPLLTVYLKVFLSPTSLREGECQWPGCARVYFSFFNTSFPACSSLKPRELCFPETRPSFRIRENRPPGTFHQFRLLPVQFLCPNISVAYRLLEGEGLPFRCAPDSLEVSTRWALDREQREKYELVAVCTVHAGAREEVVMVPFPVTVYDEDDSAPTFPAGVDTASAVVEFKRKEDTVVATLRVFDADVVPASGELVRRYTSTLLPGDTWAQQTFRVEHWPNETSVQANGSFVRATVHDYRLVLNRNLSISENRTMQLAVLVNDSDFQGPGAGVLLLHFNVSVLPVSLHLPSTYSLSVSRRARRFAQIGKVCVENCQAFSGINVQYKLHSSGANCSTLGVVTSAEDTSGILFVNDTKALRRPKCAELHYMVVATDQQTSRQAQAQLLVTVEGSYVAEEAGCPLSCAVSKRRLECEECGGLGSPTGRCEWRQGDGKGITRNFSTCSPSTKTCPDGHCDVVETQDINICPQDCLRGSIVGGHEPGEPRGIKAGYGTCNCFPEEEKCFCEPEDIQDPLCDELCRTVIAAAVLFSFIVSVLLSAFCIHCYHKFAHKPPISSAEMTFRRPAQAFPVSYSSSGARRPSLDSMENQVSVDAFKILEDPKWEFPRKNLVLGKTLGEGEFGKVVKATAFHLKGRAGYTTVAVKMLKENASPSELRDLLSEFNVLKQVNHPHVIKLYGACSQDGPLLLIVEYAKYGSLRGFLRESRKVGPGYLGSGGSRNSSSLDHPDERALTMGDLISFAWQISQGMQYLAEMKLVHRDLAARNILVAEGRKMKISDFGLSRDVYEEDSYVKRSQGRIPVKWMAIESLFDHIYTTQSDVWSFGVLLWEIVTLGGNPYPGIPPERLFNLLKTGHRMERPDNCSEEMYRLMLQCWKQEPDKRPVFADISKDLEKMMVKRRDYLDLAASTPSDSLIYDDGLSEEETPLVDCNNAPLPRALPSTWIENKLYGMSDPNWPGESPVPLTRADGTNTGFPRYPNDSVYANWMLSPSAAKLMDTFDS
The test is described as follows: Inhibition of RET kinase activity, recombinant RET method (Kinase-Glo). The following applies: RET 2 μg/ml, poly-EY4 substrate, 20 μM ATP, two hours at 30° C. In outline:
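Recombinant RET at 2 μg/ml in 20 mM MOPS/NaOH pH 7.0, 1 mM EDTA, 5% glycerol, 0.01% Brij35, 0.1% 2-mercaptoethanol, 1 mg/ml BSA; compounds 10 nM–30 μM final.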

A further test deals with T2, TrkB (Homo sapiens, UniProt Q16620).
T2 construct: purchased Upstate 14-507
T2 sequence (Q16620 32-822): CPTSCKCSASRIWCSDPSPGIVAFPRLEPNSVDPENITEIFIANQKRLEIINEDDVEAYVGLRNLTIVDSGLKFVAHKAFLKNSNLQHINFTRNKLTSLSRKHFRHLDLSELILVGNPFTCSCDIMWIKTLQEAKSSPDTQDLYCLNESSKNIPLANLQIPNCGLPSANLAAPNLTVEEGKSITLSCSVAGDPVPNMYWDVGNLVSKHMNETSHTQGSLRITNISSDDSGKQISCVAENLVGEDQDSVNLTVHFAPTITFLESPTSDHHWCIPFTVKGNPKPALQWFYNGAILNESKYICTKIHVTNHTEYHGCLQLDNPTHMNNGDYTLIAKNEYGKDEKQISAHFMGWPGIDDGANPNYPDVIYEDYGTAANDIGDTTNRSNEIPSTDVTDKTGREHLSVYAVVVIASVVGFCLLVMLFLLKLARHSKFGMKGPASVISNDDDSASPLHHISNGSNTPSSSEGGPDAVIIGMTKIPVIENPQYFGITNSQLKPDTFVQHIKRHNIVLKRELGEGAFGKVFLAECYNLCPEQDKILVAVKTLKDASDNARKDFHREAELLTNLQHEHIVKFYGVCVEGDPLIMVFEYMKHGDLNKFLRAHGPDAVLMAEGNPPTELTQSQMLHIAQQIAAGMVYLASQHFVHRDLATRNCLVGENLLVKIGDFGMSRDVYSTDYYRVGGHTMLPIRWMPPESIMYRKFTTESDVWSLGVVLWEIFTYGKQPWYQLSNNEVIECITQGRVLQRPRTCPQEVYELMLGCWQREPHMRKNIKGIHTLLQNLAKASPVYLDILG
Kind of test: Inhibition of kinase TrkB (Kinase-Glo). Conditions: TrkB 4 μg/ml, 40 μM ATP, two hours at 30° C. The procedure:
Protein TrkB (Upstate 14-507; batch #25578U) is incubated at a concentration of 4 μg/ml in a buffer containing 8 mM of MOPS/NaOH pH7, 0.2 mM EDTA, 40 mM MgAc (Sigma #229768), 1 mM DTT (Fluka #43816), NaOV 1 mM, 25 mM 2-glycerolphosphate (Sigma #G9891), in the presence of 2.5 mg/ml of peptide substrate poly-EY (Upstate #P0275), and 40 μM of ATP.
The dilution buffer for TrkB is as follows: 20 mM MOPS/NaOH pH7, 1 mM EDTA, 5% glycerol, 0.01% Brij35, 0.1% 2-mercapto, 1 mg/ml BSA.
(§1) The compound to be tested is first added to the enzyme to give a reaction volume of 50 μl. The dilution of the compounds of the invention is distributed so as to obtain a scale of final concentrations between 10 nM and 30 μM.
(§2) After incubation of the reaction mixture for two hours at 30° C., the level of ATP that remains is assayed using the Kinase-Glo Luminescent Kinase Assay (Promega #V6712) according to the conditions recommended by the supplier. The luminescence induced is read in a plate reader (Envision-Perkin Elmer).

In another test the target is T3, TrkA (Homo sapiens, UniProt P04629).
T3 construct: purchased Upstate 14-571
T3 sequence (P04629 33-796): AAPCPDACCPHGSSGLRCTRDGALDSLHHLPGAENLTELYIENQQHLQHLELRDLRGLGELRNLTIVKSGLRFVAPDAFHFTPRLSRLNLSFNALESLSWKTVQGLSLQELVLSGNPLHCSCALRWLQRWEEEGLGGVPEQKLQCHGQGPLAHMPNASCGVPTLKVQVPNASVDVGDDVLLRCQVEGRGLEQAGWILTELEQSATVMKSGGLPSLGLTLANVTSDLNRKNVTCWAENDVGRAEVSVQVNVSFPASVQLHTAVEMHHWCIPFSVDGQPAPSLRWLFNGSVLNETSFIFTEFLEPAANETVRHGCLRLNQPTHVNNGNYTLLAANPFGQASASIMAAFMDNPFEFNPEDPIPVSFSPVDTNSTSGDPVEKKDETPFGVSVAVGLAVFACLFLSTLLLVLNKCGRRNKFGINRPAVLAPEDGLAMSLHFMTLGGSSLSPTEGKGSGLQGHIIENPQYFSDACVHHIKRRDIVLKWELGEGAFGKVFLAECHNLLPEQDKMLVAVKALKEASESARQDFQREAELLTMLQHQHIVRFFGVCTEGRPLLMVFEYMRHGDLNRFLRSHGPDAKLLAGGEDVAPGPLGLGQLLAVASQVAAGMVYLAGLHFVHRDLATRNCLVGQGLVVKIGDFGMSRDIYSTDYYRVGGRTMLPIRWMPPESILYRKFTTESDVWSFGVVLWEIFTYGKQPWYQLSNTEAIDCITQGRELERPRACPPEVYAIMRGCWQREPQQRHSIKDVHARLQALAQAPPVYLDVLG
The test is described as follows: Inhibition of kinase TrkA (Kinase-Glo). The following applies: TrkA 4 μg/ml, 30 μM ATP, two hours at 30° C. How it is done: Protein TrkA (Upstate 14-571; batch #25634U) is incubated at a concentration of 4 μg/ml in a buffer containing 8 mM of MOPS/NaOH pH7, 0.2 mM EDTA, 40 mM MgAc (Sigma #229768), 1 mM DTT (Fluka #43816), NaOV 1 mM, 0.01% Triton Tx100, in the presence of 1 mg/ml of peptide substrate poly-EY (Upstate #P0275), and 30 μM of ATP.
The dilution buffer for TrkA is as follows: 20 mM MOPS/NaOH pH7, 1 mM EDTA, 5% glycerol, 0.01% Brij35, 0.1% 2-mercapto, 1 mg/ml BSA.
as §1, §2

The target in another test is T4, PIM-1 (Homo sapiens, UniProt P11309).
T4 construct: purchased Upstate 14-573
T4 sequence (P11309 whole entry): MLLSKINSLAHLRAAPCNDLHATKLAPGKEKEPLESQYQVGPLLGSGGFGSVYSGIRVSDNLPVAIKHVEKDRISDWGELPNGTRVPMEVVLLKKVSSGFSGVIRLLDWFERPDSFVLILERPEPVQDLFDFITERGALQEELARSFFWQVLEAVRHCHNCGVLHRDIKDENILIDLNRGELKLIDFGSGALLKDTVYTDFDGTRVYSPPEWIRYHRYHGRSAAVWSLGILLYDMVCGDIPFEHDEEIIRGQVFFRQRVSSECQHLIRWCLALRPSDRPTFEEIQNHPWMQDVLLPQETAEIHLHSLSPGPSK
Kind of test: Inhibition of kinase PIM-1 (Kinase-Glo). The following applies: PIM-1 0.625 μg/ml, 10 μM ATP, forty minutes at 30° C. How it is done:
Protein PIM-1 (Upstate #14-573 batch 25864U) is incubated at a concentration of 0.625 μg/ml in a buffer containing 8 mM of MOPS/NaOH pH7, 0.2 mM EDTA, 5 mM MgAc (Sigma #229768), 0.01% Triton Tx100, in the presence of 70 μM of peptide substrate S6 Kinase/Rsk2 (Upstate #12-243), and 10 μM of ATP.
The dilution buffer for PIM-1 is as follows: 20 mM MOPS/NaOH pH7, 1 mM EDTA, 5% glycerol, 0.01% Brij35, 0.1% 2-mercapto, 1 mg/ml BSA
as §1
After incubation of the reaction mixture for forty minutes at 30° C., the level of ATP that remains is assayed using the Kinase-Glo Luminescent Kinase Assay (Promega #V6712) according to the conditions recommended by the supplier. The luminescence induced is read in a plate reader (Envision-Perkin Elmer).

Chain of ALK (Q9UM73 19-1620, species assumed): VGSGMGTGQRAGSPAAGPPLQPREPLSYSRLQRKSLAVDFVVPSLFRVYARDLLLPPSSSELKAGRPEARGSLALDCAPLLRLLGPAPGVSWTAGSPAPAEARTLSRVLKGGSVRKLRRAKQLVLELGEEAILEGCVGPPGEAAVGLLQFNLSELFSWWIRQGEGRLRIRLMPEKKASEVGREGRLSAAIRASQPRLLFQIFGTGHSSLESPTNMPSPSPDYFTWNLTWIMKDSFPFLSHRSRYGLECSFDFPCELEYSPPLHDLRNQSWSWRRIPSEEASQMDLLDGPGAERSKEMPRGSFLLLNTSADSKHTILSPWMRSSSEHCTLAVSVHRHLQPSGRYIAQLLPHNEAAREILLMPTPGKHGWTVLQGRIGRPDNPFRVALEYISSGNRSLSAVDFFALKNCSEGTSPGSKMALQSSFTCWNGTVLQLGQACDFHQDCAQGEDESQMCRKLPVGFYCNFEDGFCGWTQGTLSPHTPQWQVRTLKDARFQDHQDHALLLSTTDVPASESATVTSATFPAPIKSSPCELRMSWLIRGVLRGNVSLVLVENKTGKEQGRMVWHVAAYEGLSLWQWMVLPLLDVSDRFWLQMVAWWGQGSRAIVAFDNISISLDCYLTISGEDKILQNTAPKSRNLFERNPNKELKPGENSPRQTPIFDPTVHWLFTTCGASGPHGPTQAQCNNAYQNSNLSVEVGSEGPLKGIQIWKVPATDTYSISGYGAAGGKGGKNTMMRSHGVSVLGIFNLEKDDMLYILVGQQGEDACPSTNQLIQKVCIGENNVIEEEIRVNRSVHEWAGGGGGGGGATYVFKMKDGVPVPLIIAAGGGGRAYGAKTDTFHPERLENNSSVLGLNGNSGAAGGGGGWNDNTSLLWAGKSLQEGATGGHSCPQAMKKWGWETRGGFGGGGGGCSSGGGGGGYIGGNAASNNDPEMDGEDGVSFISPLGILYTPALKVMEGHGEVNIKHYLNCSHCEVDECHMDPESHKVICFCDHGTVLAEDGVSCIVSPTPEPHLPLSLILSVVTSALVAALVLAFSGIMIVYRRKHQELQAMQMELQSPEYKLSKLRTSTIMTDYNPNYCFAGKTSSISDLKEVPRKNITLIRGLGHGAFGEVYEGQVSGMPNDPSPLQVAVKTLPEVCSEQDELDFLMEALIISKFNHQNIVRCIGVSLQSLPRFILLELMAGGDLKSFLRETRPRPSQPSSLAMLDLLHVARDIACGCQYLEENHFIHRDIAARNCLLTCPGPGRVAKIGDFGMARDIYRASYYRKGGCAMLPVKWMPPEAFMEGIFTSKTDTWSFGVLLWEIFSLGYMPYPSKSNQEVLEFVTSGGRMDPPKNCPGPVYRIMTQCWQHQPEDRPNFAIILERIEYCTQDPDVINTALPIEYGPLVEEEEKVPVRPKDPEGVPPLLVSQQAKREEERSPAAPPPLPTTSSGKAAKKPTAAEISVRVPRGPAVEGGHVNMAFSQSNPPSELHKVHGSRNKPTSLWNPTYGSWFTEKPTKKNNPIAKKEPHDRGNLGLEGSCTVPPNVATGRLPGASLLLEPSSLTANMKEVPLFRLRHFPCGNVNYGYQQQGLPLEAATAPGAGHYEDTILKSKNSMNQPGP

As for `CCOC(=O)c1c[nH]c2c(=O)[nH]c3ccc(S(=O)(=O)NC4CN5CCC4CC5)cc3c12` (stereo not drawn) [Compound 94, 8-(1-Azabicyclo[2.2.2]oct-3-ylsulfamoyl)-4-oxo-4,5-dihydro-3H-pyrrolo[2,3-c]quinoline-1-ethyl carboxylate], the IC50 against ALK and on RET was 0.1 to 1 µM each time.

For `CCOC(=O)c1c[nH]c2c(=O)[nH]c3ccc(-c4cc[nH]n4)cc3c12` [Compound 282, 4-Oxo-8-(1H-pyrazol-3-yl)-4,5-dihydro-3H-pyrrolo[2,3-c]quinoline-1-ethyl carboxylate], the IC50 against TrkB is 10 to 100 µM; at TrkA, 10 to 100 µM; against PIM-1, 10 to 100 µM; at RET, 0.1 to 1 µM.

Consider `CCCOC(=O)c1c[nH]c2c(=O)[nH]c3ccc(S(=O)(=O)N(C)C4CCNCC4)cc3c12` [Compound 120, 8-(Methyl-piperidin-4-yl-sulfamoyl)-4-oxo-4,5-dihydro-3H-pyrrolo[2,3-c]quinoline-1-propyl carboxylate], for which the IC50 on TrkB was 10 to 100 µM; against TrkA it was 1 to 10 µM; against PIM-1 it was 10 to 100 µM; at RET it was less than 0.1 µM.

For the compound `CCOC(=O)c1c[nH]c2c(=O)[nH]c3ccc(NS(=O)(=O)c4ccccc4)cc3c12` [Compound 37, 8-Benzenesulfonylamino-4-oxo-4,5-dihydro-3H-pyrrolo[2,3-c]quinoline-1-ethyl carboxylate], the IC50 was 1 to 10 µM at TrkB, 1 to 10 µM against TrkA, 10 to 100 µM on PIM-1 and 0.1 to 1 µM at RET.

`CCOC(=O)c1c[nH]c2c(=O)[nH]c3ccc(S(=O)(=O)N(C)c4ccccc4)cc3c12` [Compound 3, 8-(Methyl-phenylsulfamoyl)-4-oxo-4,5-dihydro-3H-pyrrolo[2,3-c]quinoline-1-ethyl carboxylate]: the half-inhibitory concentration (IC50) was 10 to 100 µM against TrkB, 1 to 10 µM on TrkA, 10 to 100 µM at PIM-1 and less than 0.1 µM at RET.

As for `O=C(OCC1CCCCC1)c1c[nH]c2c(=O)[nH]c3ccc(S(=O)(=O)NC4CCNCC4)cc3c12` [Compound 117], the IC50 lay within 10 to 100 µM at TrkB, 10 to 100 µM at TrkA, 1 to 10 µM against PIM-1 and 0.1 to 1 µM at RET.

Regarding `CCOC(=O)c1c[nH]c2c(=O)[nH]c3ccc(S(=O)(=O)O)cc3c12` [Compound 227, 4-Oxo-8-sulfo-4,5-dihydro-3H-pyrrolo[2,3-c]quinoline-1-ethyl carboxylate], the IC50 at TrkB, at TrkA, against PIM-1 and on RET was 1 to 10 µM throughout.

Consider `CCCCOC(=O)c1c[nH]c2c(=O)[nH]c3ccc(S(=O)(=O)NC4CCNCC4)cc3c12` [Compound 115, 4-Oxo-8-(piperidin-4-ylsulfamoyl)-4,5-dihydro-3H-pyrrolo[2,3-c]quinoline-1-carboxylate of butyl], for which the IC50 on TrkB was 10 to 100 µM; on TrkA, 10 to 100 µM; on PIM-1 it was 1 to 10 µM; on RET it was less than 0.1 µM.

Take `CCOC(=O)c1c[nH]c2c(=O)[nH]c3ccc(-c4cccc(CO)c4)cc3c12` [Compound 240, 8-(3-Hydroxymethyl-phenyl)-4-oxo-4,5-dihydro-3H-pyrrolo[2,3-c]quinoline-1-ethyl carboxylate]: the IC50 lay within 1 to 10 µM on TrkB, 1 to 10 µM against TrkA, 1 to 10 µM on PIM-1 and 0.1 to 1 µM on RET.

As for `CCOC(=O)c1c[nH]c2c(=O)[nH]c3ccc(-c4cccc(CN(C)C)c4)cc3c12` [Compound 242, 8-(3-Dimethylaminomethyl-phenyl)-4-oxo-4,5-dihydro-3H-pyrrolo[2,3-c]quinoline-1-ethyl carboxylate], the concentration for half-maximal inhibition (IC50) against TrkB is 10 to 100 µM; against TrkA it was 10 to 100 µM; on PIM-1, 1 to 10 µM; at RET it was 0.1 to 1 µM.

Consider `CCNc1nccc(-c2ccc3[nH]c(=O)c4[nH]cc(C(=O)OCC)c4c3c2)n1` [Compound 264, 8-(2-Ethylamino-pyrimidin-4-yl)-4-oxo-4,5-dihydro-3H-pyrrolo[2,3-c]quinoline-1-ethyl carboxylate], for which the IC50 fell in the range of 10 to 100 µM against TrkB, 10 to 100 µM at TrkA, 1 to 10 µM at PIM-1 and 0.1 to 1 µM on RET.

With `CCOC(=O)c1c[nH]c2c(=O)[nH]c3ccc(S(=O)(=O)N(CCC#N)C4CC4)cc3c12` [Compound 127, 8-[(2-Cyano-ethyl)-cyclopropyl-sulfamoyl]-4-oxo-4,5-dihydro-3H-pyrrolo[2,3-c]quinoline-1-ethyl carboxylate], the IC50 on TrkB was 1 to 10 µM; against TrkA, 1 to 10 µM; against PIM-1, 10 to 100 µM; on RET, less than 0.1 µM.

`CCOC(=O)c1c[nH]c2c(=O)[nH]c3ccc(NS(=O)(=O)c4cccs4)cc3c12` [Compound 56, 4-Oxo-8-(thiophene-2-sulfonylamino)-4,5-dihydro-3H-pyrrolo[2,3-c]quinoline-1-ethyl carboxylate]: the half-inhibitory concentration (IC50) against TrkB fell in the range of 1 to 10 µM; against TrkA it was 1 to 10 µM; at RET, 0.1 to 1 µM.

`CCOC(=O)c1c[nH]c2c(=O)[nH]c3ccc(-c4ccnc(Nc5nc6ccccc6[nH]5)n4)cc3c12` [Compound 267, 8-[2-(1H-Benzoimidazol-2-ylamino)-pyrimidin-4-yl]-4-oxo-4,5-dihydro-3H-pyrrolo[2,3-c]quinoline-1-ethyl carboxylate]: the results for the IC50 on TrkB, on TrkA and at RET were 10 to 100 µM, 10 to 100 µM and 1 to 10 µM, respectively.

Consider `CCOC(=O)c1c[nH]c2c(=O)[nH]c3ccc(-c4cccc(O)c4)cc3c12` [Compound 237, 8-(3-Hydroxy-phenyl)-4-oxo-4,5-dihydro-3H-pyrrolo[2,3-c]quinoline-1-ethyl carboxylate], for which the concentration for half-maximal inhibition (IC50) on TrkB lay within 0.1 to 1 µM; against TrkA, 1 to 10 µM; against PIM-1, 1 to 10 µM; at RET it was 0.1 to 1 µM.

In the case of `CCCOC(=O)c1c[nH]c2c(=O)[nH]c3ccc(S(=O)(=O)NC4CCNCC4)cc3c12` [Compound 114, 4-Oxo-8-(piperidin-4-ylsulfamoyl)-4,5-dihydro-3H-pyrrolo[2,3-c]quinoline-1-propyl carboxylate], the 50% inhibitory concentration (IC50) on TrkB is 10 to 100 µM; on TrkA, 10 to 100 µM; at PIM-1, 1 to 10 µM; at RET it was less than 0.1 µM.

`CCOC(=O)c1c[nH]c2c(=O)[nH]c3ccc(S(=O)(=O)Nc4ccccc4)cc3c12` [Compound 2, 4-Oxo-8-phenylsulfamoyl-4,5-dihydro-3H-pyrrolo[2,3-c]quinoline-1-ethyl carboxylate]: the IC50 against TrkB was 1 to 10 µM; against TrkA it was 1 to 10 µM; on RET it was less than 0.1 µM.

As for `CCOC(=O)c1c[nH]c2c(=O)[nH]c3ccc(NS(=O)(=O)c4cccc(F)c4)cc3c12` [Compound 44, 8-(3-Fluoro-benzenesulfonylamino)-4-oxo-4,5-dihydro-3H-pyrrolo[2,3-c]quinoline-1-ethyl carboxylate], the figures for the IC50 on TrkB, on TrkA and at RET were 1 to 10 µM, 1 to 10 µM and 0.1 to 1 µM, respectively.

Regarding `COC(=O)c1c[nH]c2c(=O)[nH]c3ccc(S(=O)(=O)NC4CCCCC4)cc3c12` [Compound 111, 8-Cyclohexylsulfamoyl-4-oxo-4,5-dihydro-3H-pyrrolo[2,3-c]quinoline-1-methyl carboxylate], the IC50 against TrkB, on TrkA and on RET was 1 to 10 µM each time.
